For data set [1], the system named is male Wistar rats. The data set is described as follows: Spatial memory in the Morris water maze. It is filed as in vivo. The settings on record: rat. On the procedure: The Morris water-maze test (Morris [1984]) was performed as previously described (Kraev et al. [2011]) with slight modifications (see Data S1). Male Wistar rats (Charles River), weighing 150–200 g on the day of arrival were used. To investigate for potential effects on memory consolidation, neurolide-1 was injected immediately after the training sessions on day 1 and 2 (n = 12 in each group). To test for potential effects on memory acquisition neurolide-1 was injected 2 h before start of training on training day 1 and 2 (n = 12 in each group). Finally, to test for potential effects on MK-801-induced learning deficiencies neurolide-1 was injected 2 h before start of training on day 2 and 3 in animals, which had received an injection with MK-801 30 min earlier (n = 6–9 in each group). In a slightly modified version of the MK-801 experiments a group of animals received a neurolide-1 injection immediately after the training sessions on day 1, and then a neurolide-1 injection 2 h before start of training on day 2, preceded by an MK-801 injection 30 min earlier (n = 12 in each group). Terminally, rats were rapidly and humanely rendered unconscious by concussive stunning and euthanized by cervical dislocation.
The Morris water maze test (Morris, 1984) was conducted in a 160 cm wide circular black tank placed in a dimly lit room and filled with 21°C water up to 20 cm from the top. The tank was surrounded by visual orientation marks, and a 10 cm wide escape platform was placed 1.5 cm below the water level for it to be unseen. A video camera was placed above the tank and connected to a computerized tracking system (Ethovision 3.1, Noldus IT, Wageningen, Holland). The tank was divided into four equal-size quadrants that also served as starting positions. The latency to locate the platform, time spent swimming, and swimming speed were scored within the defined zones (i.e., total area, quadrants, and a platform circle that was 60 cm in diameter with the center in the original platform location). Prior to training, the rats were handled 2 min daily for 5 days to minimize stress during the experiments.
Reference memory training consisted of three consecutive trials daily for 3 days. Each trial began with placing the animal in the water facing the wall of the pool. The starting position differed for each trial but was identical for all animals. In each trial, the animal was allowed 90 s to locate the platform. […] After each trial, the rats were allowed 20 s of orientation time on the platform and then removed from the pool for 20 s before the next trial was initiated. After the last trial each day, the animals were dried and returned to their home cages.
To test for effects on long-term memory, the animals were tested in a probe trial 24 h after the last reference memory training. In the probe trial, the platform was removed, and the animals began from a position in a quadrant adjacent to the original platform quadrant. The rats were allowed to swim for 60 s, after which the trial was stopped.

Data set [2] relates to male Wistar rats. The data set is described as follows: Y maze test (spontaneous alternation). In kind it is in vivo, rat. On the procedure:
NMDA-mediated effects of Neurolide-1 on spatial working memory performance was assessed by recording spontaneous alternation behavior in a Y maze test performed as described previously (Wegener et al. [2011]), (See Data S1). Initially, adult male Wister rats (420–490 g, n = 6–12; Charles River) were injected s.c., three times at 28, 4, and 2 h before start of the Y maze test. One group received Neurolide-1, saline, and neurolide-1 in this order. Another group received saline, MK-801, and saline in this order. A third group received neurolide-1, MK-801, and neurolide-1 in this order. And control group received saline at all times. In a second setup we tested the effect of neurolide-1 in very young male Wistar rats (4-weeks old) which received a s.c., injection of neurolide-1 or saline 2 h prior to testing them in the Y-maze (n = 11–15). Terminally, rats were rapidly and humanely rendered unconscious by concussive stunning and euthanized by cervical dislocation.
The maze was made of gray polyvinyl chloride, with three identical arms (425 mm length × 225 mm height × 145 mm width) mounted symmetrically to an equilateral triangular center section. Each rat was placed at the end of one arm and allowed to explore the apparatus freely for 8 min. The sequence and number of all arm entries were recorded for each animal throughout the testing period. An alternation was defined as entries into all three arms on consecutive occasions. Therefore, the number of maximal alternation was the total number of arm entries minus 2, and the percentage of alternation was calculated as (actual alternations / maximal alternations) × 100. The total number of arms entered during the sessions was also determined (Yamaguchi et al, 2006). Data were eliminated in cases in which the number of total arm entries was less than 10 or when the rat escaped from the Y maze. After each trial, the Y maze was cleaned with 1% Virkon S (Pharmaxim, Helsingborg, Sweden).

Where [3] appears, read: 4-week-old male Wistar rats, single s.c. treatment 2 h before test, n = 11-15.

Results on one sequence are retold here after article PMC4448987, “A neuroligin-1-derived peptide stimulates phosphorylation of the NMDA receptor NR1 subunit and rescues MK-801-induced decrease in long-term potentiation and memory impairment” (Pharmacology Research & Perspectives, 2015).

As for SEGNRWSNSTKGLFQRA [neurolide-1], the “learning, velocity and memory retention in probe test (memory acquisition)” value in the data set with male Wistar rats [1] (10 mg/kg s.c. 2 h before training sessions on days 1 and 2, n = 12) is listed as “No effect”. Further, in the data set with male Wistar rats [1] (10 mg/kg s.c. immediately after last training session on days 1 and 2, probe test 24 h after last training, n = 12), the “learning on day 2 or 3 and memory retention in probe test (memory consolidation)” value is on record as “No effect”. For the same sequence, the “velocity in the water maze” value in the data set on male Wistar rats [1] (MK-801 0.1 mg/kg s.c. with or without neurolide-1 10 mg/kg s.c. (long-term regimen), n = 12) is on record as “Neither treatments affected velocity”. The “effect on MK-801-impaired learning and memory retention, short-term treatment” value in the data set with male Wistar rats [1] (neurolide-1 10 mg/kg s.c. 30 min after MK-801 0.1 mg/kg and 2 h before first trial on days 2 and 3, n = 6-9) was “did not reduce the effect of MK-801”. The “effect on MK-801-impaired learning (escape latency)” value in the data set on male Wistar rats [1] (neurolide-1 10 mg/kg s.c. after training on day 1 and on day 2, 30 min after MK-801 0.1 mg/kg and 2 h before first training session, n = 12) is “attenuated the effect of the NMDA receptor inhibitor on learning”. Besides, the “effect on MK-801-impaired memory in the probe test 24 h after last training session” value in the data set with male Wistar rats [1] (neurolide-1 10 mg/kg s.c. after training on day 1 and on day 2, 30 min after MK-801 0.1 mg/kg, n = 12) is “completely abrogated the effect of MK-801”. Moreover, in the data set with male Wistar rats [2] (setting [3]), the “alternation rate in 4-week-old rats” value is reported as 76% and the “total number of arms visited in 4-week-old rats” value was “slightly decreased the total number of arms visited”. For the same sequence, the “working memory performance (alternation rate), peptide alone” value with male Wistar rats [2] (adult rats 420-490 g, neurolide-1 10 mg/kg s.c. 24 and 2 h before test, n = 6-12) is on record as “did not affect performance”. For the same sequence, the “total number of arm entries, combined treatment neurolide-1 + MK-801” value in the data set on male Wistar rats [2] (adult rats, neurolide-1 10 mg/kg s.c. twice plus MK-801 0.1 mg/kg, n = 6-12) is listed as “significantly increased the total number of arms visited”. For the same sequence, the “working memory (alternation rate) in MK-801-treated animals” value in the data set with male Wistar rats [2] (adult rats, neurolide-1 10 mg/kg s.c. twice, MK-801 0.1 mg/kg 2 h before second neurolide-1 injection, n = 6-12) was “partially restored working memory”. Further, in the data set on male Wistar rats [2] (adult rats, peptide alone or MK-801 alone, n = 6-12), the “total number of arm entries, single treatment” value was “did not change”.
